Results: patent US4968708A, “Imidazo[2,1-B]benzothiazole compounds and antiulcer compositions containing the same” (priority 1988, dated 1990)

How the values were obtained:
aspirin-induced ulcer = assay: Antiulcer activity against aspirin-induced ulcer model; type: in vivo, Wistar strain male rats; details: rats, 100 mg/kg p.o. 30 min before aspirin 200 mg/kg p.o.; for Aspirin Induced Ulcer Ulcer Index: stomach excised 7 h after aspirin; for inhibition in vivo at 100 mg/kg: Rattus norvegicus, po, 7 h, read-out: Aspirin Induced Ulcer Inhibition Rate
Method: Thirty minutes after administration, aspirin was further orally administered at a dose of 200 mg/kg. Seven hours after administration of aspirin, the stomach was excised under ethereal anesthesia and spotted and linear erosion and a long diameter of any ulcer were microscopically measured to determine an ulcer index and an inhibition rate.
(§1) In the control group, a 5% gum arabic aqueous solution was orally administered at a dose of 5 ml/kg.

[1] = test system: water-immersion stress ulcer; assay: Antiulcer activity against water-immersion stress ulcer; type: in vivo, Wistar strain male rats; details: rats; for Water-Immersion Stress Ulcer Ulcer Index: 100 mg/kg p.o. 30 min before 6 h water immersion at 22°±1° C.; for inhibition in vivo at 100 mg/kg: Rattus norvegicus, po, 6 h, read-out: Water-Immersion Stress Ulcer Inhibition Rate
Method: A suspension of each test compound in a 5% gum arabic aqueous solution was orally given to Wistar strain male rats (at the age of 7 to 8 weeks, weighing 180 to 250 g; 7-9 rats in the group administered with the test compound; 10-16 rats in the control group) fasted for 24 hours at a dose of 100 mg of the test compound/5 ml/kg. Thirty minutes after administration, the animal was immersed in a water bath at 22°±1° C. up to the xiphisternum using a stress cage made by Tokyo University, Faculty of Pharmacology, to apply a stress load for 6 hours. After applying the stress load, the rats had the cervical vertebra dislocated to death. Then, the stomach was excised and, spotted and linear erosion and a long diameter of any ulcer were microscopically measured to determine an ulcer index and an inhibition rate.
as §1

gastric juice secretion = assay: Gastric juice secretion inhibition activity (pyloric ligature); type: in vivo, Wistar strain male rats; details: rats, 100 mg/kg p.o.; for inhibition in vivo at 100 mg/kg: Rattus norvegicus, po, read-out: Volume Inhibition Rate
Method: A suspension of each test compound in a 5% gum arabic aqueous solution was orally given to Wistar strain male rats (at the age of 7 to 8 weeks, weighing 180 to 250 g; 7-9 rats in the group administered with the test compound; 14-17 rats in the control group) fasted for 24 hours at a dose of 100 mg of the test compound/5 ml/kg. Thirty minutes after administration, pyloric ligature was made under ethereal anesthesia. Four hours thereafter, the stomach was excised under ethereal anesthesia to collect gastric juice. The collected gastric juice was centrifuged (2500 rpm) at 4° C. for 10 minutes. After the supernatant was collected, the amount of the gastric juice and its pH were measured using a pH meter. Furthermore, the amount of free hydrochloric acid and the total acidity were measured with Topfer reagent and phenolphthalein reagent, respectively. Using a part of the gastric juice, pepsin output in the gastric juice was measured using casein as a substrate in a manner similar to the method of Anson et al.
as §1

ddy strain male mice = assay: Acute toxicity; type: in vivo; details: 7 days observation
Method: A suspension of each test compound in a 5% gum arabic aqueous solution was orally given to ddy strain male mice (at the age of 4 to 5 weeks, weighing 25 to 35 g; 2 to 9 mice in one group). For 7 days after the administration, the mice were observed as to if they were dead or alive. Based on the number of deaths, the LD50 value was determined by the Probit method.

[2] = 100 mg/kg p.o. 30 min before 6 h water immersion, vs control group
[3] = pyloric ligature 30 min later, gastric juice collected after 4 h
[4] = pyloric ligature, 4 h, first part of Table 5
[5] = pyloric ligature, 4 h, second part of Table 5
[6] = 4 h, pyloric ligature, 4 h, vs control group

Row | Compound | Aspirin Induced Ulcer Ulcer Index (aspirin-induced ulcer) | Water-Immersion Stress Ulcer Ulcer Index [1] | Volume (gastric juice) (gastric juice secretion; [3]) | Acidity (gastric juice secretion; pyloric ligature, 4 h) | Free HCl (gastric juice secretion; pyloric ligature, 4 h) | Pepsin Activity (gastric juice secretion; pyloric ligature, 4 h) | Pepsin Output (gastric juice secretion; pyloric ligature, 4 h) | pH (gastric juice) (gastric juice secretion; [4]) | inhibition in vivo at 100 mg/kg (aspirin-induced ulcer; vs control group) | Mortality (No. death/No. treated) (ddy strain male mice; 500 mg/kg p.o) | Mortality (No. death/No. treated) (ddy strain male mice; 1000 mg/kg p.o) | inhibition in vivo at 100 mg/kg [1, 2] | Acid Output (gastric juice secretion; [5]) | Free HCl (gastric juice secretion; [5]) | Pepsin Output (gastric juice secretion; [5]) | Volume (gastric juice) (gastric juice secretion; [5]) | pH (gastric juice) (gastric juice secretion; [5]) | inhibition in vivo at 100 mg/kg (gastric juice secretion; [6]) | further results
1 | 2-Methyl-3-thenoyloxymethylimidazo[2,1-b]benzothiazole [Example 19] | 63.7 ± 8.1 mm^2 | 11.3 ± 2.6 mm^2 | 4.9 ± 0.5 mL | 78.9 ± 2.7 mEq/l | 48.6 ± 3.4 mEq/l | 99.6 ± 2.2 units/ml | 122.8 ± 14.4 units/hr | 1.56 ± 0.10 | – | – | – | – | – | – | – | – | – | – | Aspirin Induced Ulcer Inhibition Rate (aspirin-induced ulcer; vs control group): 4.6%; Water-Immersion Stress Ulcer Inhibition Rate [1, 2]: 51.5%; Volume Inhibition Rate (gastric juice secretion; pyloric ligature, 4 h, vs control group): 18.3%
2 | Cc1nc2sc3ccccc3n2c1C(C)O (stereo not drawn) [Example 4, 3-(1-Hydroxyethyl)-2-methylimidazo[2,1-b]benzothiazole] | 8.0 ± 2.9 mm^2 | 7.3 ± 2.5 mm^2 | – | – | – | – | – | – | 88.7% | 0/5 | 0/5 | 69.2% | 30.8 ± 5.1 mcEq/100 g | 8.0 ± 2.9 mcEq/100 g | 9.9 ± 1.3 mg tyrosine/100 g | 0.69 ± 0.09 ml/100 g | 2.36 ± 0.21 | – | –
3 | CCCC(O)c1c(C)nc2sc3ccccc3n12 (stereo not drawn) [Example 5, 3(α-Hydroxy)butyl-2-methylimidazo[2,1-b]benzothiazole] | 43.8 ± 10.3 mm^2 | 20.4 ± 4.2 mm^2 | 6.7 ± 0.7 mL | 45.0 ± 5.6 mEq/l | 10.4 ± 2.1 mEq/l | 86.2 ± 1.9 units/ml | 139.6 ± 16.7 units/hr | 2.17 ± 0.12 | 23.7% | – | – | 5.1% | – | – | – | – | – | -13.6% | –
4 | Cc1nc2sc3ccccc3n2c1C(C)(C)O [Example 6, 3(α-Hydroxy-1-methyl)ethyl-2-methylimidazo[2,1-b]benzothiazole] | 55.1 ± 8.7 mm^2 | 11.7 ± 4.5 mm^2 | – | – | – | – | – | – | 22.3% | 0/5 | 0/5 | 50.6% | 169.9 ± 38.0 mcEq/100 g | 138.6 ± 37.3 mcEq/100 g | 23.4 mg tyrosine/100 g | 1.90 ± 0.33 ml/100 g | 1.24 ± 0.07 | – | –
5 | Cc1nc2sc3ccccc3n2c1C(O)c1ccccc1 (stereo not drawn) [Example 7, 3(αHydroxy)benzyl-2-methylimidazo[2,1-b]benzothiazole] | 39.6 ± 3.7 mm^2 | 17.9 ± 4.5 mm^2 | 5.4 ± 0.6 mL | 69.1 ± 7.0 mEq/l | 39.7 ± 5.0 mEq/l | 99.5 ± 4.1 units/ml | 135.0 ± 18.1 units/hr | 1.65 ± 0.13 | 31% | – | – | 16.7% | – | – | – | – | – | 8.5% | –
6 | COc1ccc2c(c1)sc1nc(C)c(CO)n12 [Example 9, 7-Methoxy-2-methylimidazo[2,1-b]benzothiazole-3-methanol] | 64.8 ± 7.5 mm^2 | 6.4 ± 1.2 mm^2 | 5.3 ± 0.9 mL | 76.2 ± 4.3 mEq/l | 42.6 ± 5.2 mEq/l | 102.2 ± 3.9 units/ml | 135.5 ± 22.7 units/hr | 1.55 ± 0.08 | 15% | – | – | 51.5% | – | – | – | – | – | 15.9% | –
7 | COc1cc2c(sc3nc(C)c(CO)n32)c(OC)c1OC [Example 10, 6,7,8-Trimethoxy-2-methylimidazo[2,1-b]benzothiazole-3-methanol] | 53.7 ± 8.3 mm^2 | 9.6 ± 2.1 mm^2 | 5.2 ± 0.5 mL | 87.3 ± 3.5 mEq/l | 50.4 ± 3.2 mEq/l | 103.5 ± 1.8 units/ml | 133.7 ± 10.8 units/hr | 1.47 ± 0.03 | 29.5% | – | – | 27.3% | – | – | – | – | – | 17.5% | –
8 | Cc1nc2sc3ccccc3n2c1COC(C)C.Cl [Example 13, 2-Methylimidazo[2,1-b]benzothiazole-3-methanol isopropyl ether hydrochloride] | 24.4 ± 3.3 mm^2 | – | – | – | – | – | – | – | 71% | 0/5 | 5/5 | – | 57.6 ± 16.4 mcEq/100 g | 22.3 ± 10.7 mcEq/100 g | 13.0 ± 2.3 mg tyrosine/100 g | 1.29 ± 0.23 ml/100 g | 2.70 ± 0.53 | – | –
9 | COc1ccccc1C(=O)OCc1c(C)nc2sc3ccccc3n12 [Example 18] | 45.3 ± 10.4 mm^2 | 13.5 ± 4.1 mm^2 | 8.1 ± 0.8 mL | 82.1 ± 5.0 mEq/l | 51.7 ± 5.8 mEq/l | 91.4 ± 3.3 units/ml | 186.6 ± 24.3 units/hr | 1.45 ± 0.06 | 32.2% | – | – | 42.1% | – | – | – | – | – | -35% | –
10 | CCNC(=O)OCc1c(C)nc2sc3ccccc3n12 [Example 20, 2-Methylimidazo[2,1-b]benzothiazole 3-methyl ethyl carbamate] | 56.2 ± 6.8 mm^2 | 4.0 ± 1.3 mm^2 | 5.9 ± 0.3 mL | 54.5 ± 7.0 mEq/l | 26.1 ± 5.5 mEq/l | 91.6 ± 1.7 units/ml | 136.0 ± 7.2 units/hr | 1.89 ± 0.12 | 26.2% | – | – | 69.7% | – | – | – | – | – | 6.3% | –
